Measured values published in PMC10330721, “Chemo-enzymatic synthesis and biological activity evaluation of propenylbenzene derivatives” (Frontiers in Microbiology, 2023).
In brackets after ≈: the same amount, converted by molar mass. Read-outs that look alike come from different tables or passages of the source.

Assays:
RBCs membrane = assay: Fluorescence spectroscopy of the RBCs membrane (DPH probe anisotropy); format: cell-based, human; conditions: for Fluorescence anisotropy of the DPH probe: membranes of RBCs, 37 °C; for Change in DPH anisotropy / RBCs membrane fluidity (in words): RBCs, 20, 60 and 100 μM
Experimental: Using the DPH probe, the anisotropy values of cell membranes of RBCs modified with the test compounds were measured. RBCs for this analysis were prepared according to the method described in subsection 2.5.3. Then, the DPH probe was added to RBCs with a haematocrit of 0.2%. The final concentration of the probe in the sample was 1.3 μM. The mixture was incubated protected from light at 37°C for 30 min. Then, the compounds dissolved in ethanol were added. The compounds were tested at 20, 60, and 100 μM concentrations. Samples with compounds and control samples with alcohol of the appropriate concentration were incubated at 37°C for 1 h. Measurements in triplicate were made in quartz cuvettes using a CARY Eclipse fluorimeter (Varian, San Diego, CA, United States) at 37°C. The excitation wavelength for the DPH probe is λexc = 360 nm and the emission wavelength is λem = 426 nm.

Caco-2 cells = assay: Resazurin-based viability assay; format: cell-based, human; conditions: for Effect on Caco-2 proliferation / viability (in words): 24 h, 1, 50 and 200 μg/mL
Experimental: (§1) The human HepG2 and Caco-2 cell lines were obtained from the American Type Culture Collection (HB-8065™ and HTB-37™) and the MG-63 cell line was obtained from the European Collection of Authenticated Cell Cultures (Merck, Poznań, Poland). HepG2 cells were cultured in Dulbecco’s modified Eagle’s Medium - low glucose (Merck) supplemented with 10% foetal bovine serum (FBS) (Merck). Caco-2 cells were cultured in Dulbecco’s modified Eagle’s medium - high glucose (Merck) supplemented with 10% FBS, 2% HEPES buffer (Thermo Fisher Scientific, Warszawa, Poland), 1% Penicillin–Streptomycin-Amphotericin B Solution (100×, Merck), 1% MEM solution (100×, Thermo Fisher Scientific), and 1% Gentamycin Solution (10 mg/mL, Merck). MG-63 cells were cultured in Minimum Essential Medium (Merck) supplemented with 10% FBS. All cells were cultured in an atmosphere of 5% CO2 at 37°C.
(§2) HepG2, Caco-2, and […] were seeded in 96-well plates at 20,000 cells per well, and MG-63 cells at 10,000 cells per well, as described previously ([Marycz et al., 2012]; [Kornicka et al., 2017]). The tested compounds were dissolved in ethanol at 10 mg/mL. The concentrations were then adjusted to 1, 50, and 200 μg/mL in culture medium. Four controls were prepared: no ethanol added, and 0.01, 0.5, and 2% EtOH. The cells were treated with the compounds for 24 h. Then, cell viability was evaluated using the resazurin-based assay kit (TOX8), as described previously ([Grzesiak et al., 2011]; [Marycz et al., 2018]). The culture medium was replaced with medium containing 10% resazurin dye. The cells were incubated at 37°C in an atmosphere of 5% CO2 for 2 h. Absorbance levels were measured spectrophotometrically (Epoch) at a wavelengths of 600 nm for resazurin and 690 nm as a reference.

C. albicans 595/20 = assay: Fungistatic activity assay, broth microdilution; format: cell-based; conditions: Candida albicans
Experimental: (§3) Fungistatic activity was determined using Candida albicans ATCC 90028 from the American Type Culture Collection (ATCC, Manassas, VA, United States), and clinical isolates, C. albicans 636/20, C. albicans 595/20, and C. albicans 38 obtained from Wrocław Medical University, Wrocław, Poland.
(§4) All compounds were tested for biological activity against C. albicans ATTC 90028, C. albicans 636/20, C. albicans 595/20, and C. albicans 38 using the broth microdilution method. YPD medium (20 g glucose, 20 g Bacto Peptone, 10 g yeast extract, and 1 L of distilled water, pH 6.5) was used for the tests. The compound solutions were prepared in DMSO and diluted in YPD to obtain final concentrations in the range of 10–250 μg/mL. One hundred microlitres of each solution was pipetted into the wells of a 96-well microtiter plate. The inoculum was standardized to 0.5 McFarland standard and then diluted to obtain a final suspension with a cell density of 0.5–2.5 × 10^3 CFU/mL. The inoculum size was 100 μL. The positive control comprised DMSO added in the same concentration as the tested compounds in the inoculum, whereas the negative control consisted of DMSO diluted in the broth without the addition of inoculum. The microtiter plates were incubated in a Biosan PST-60 HL Plate Shaker-Thermostat (Riga, Latvia) at 35°C under shaking at 1,000 rpm for 24 h.

C. albicans 636/20 = assay: Fungistatic activity assay, broth microdilution; format: cell-based; conditions: Candida albicans, 636/20, 24 h
Experimental: as §3, §4

[1] = Haemolytic activity assay; format: cell-based; conditions: human red blood cells (RBCs) from healthy donors, 37°C, read-out: Percentage of haemolysis
Experimental: This test is based on comparison of the cytotoxicity of all tested compounds in human red blood cells (RBCs) with that in a control group. RBCs for this method were obtained from a blood center from examined and healthy donors. The compounds were tested at 10, 20, 40, 60, 80, and 100 μM concentrations. The control sample contained only ethanol in the same volume as the test samples. […] The samples were incubated at 37°C for 1 h. Then, the absorbance at 540 nm was measured using a UV–Vis spectrophotometer (Specord 40, Analytik Jena, Jena, Germany). The haemolytic activity of the compounds was determined as the ratio of the absorbance of haemoglobin in the test samples to that in completely haemolyzed cells multiplied by 100%.

MG63 cells = assay: Resazurin-based viability assay; format: cell-based, human; conditions: for Effect on MG63 proliferation / viability (in words): 24 h, 1, 50 and 200 μg/mL
Experimental: as §1, with “HepG2” for “The human HepG2 and Caco-2 cell lines were obtained from the American Type Culture Collection (HB-8065™ and HTB-37™) and the MG-63 cell line was obtained from the European Collection of Authenticated Cell Cultures (Merck, Poznań, Poland). HepG2”
The tested compounds were dissolved in ethanol at 10 mg/mL. The concentrations were then adjusted to 1, 50, and 200 μg/mL in culture medium. Four controls were prepared: no ethanol added, and 0.01, 0.5, and 2% EtOH. The cells were treated with the compounds for 24 h. […] The culture medium was replaced with medium containing 10% resazurin dye. The cells were incubated at 37°C in an atmosphere of 5% CO2 for 2 h. Absorbance levels were measured spectrophotometrically (Epoch) at a wavelengths of 600 nm for resazurin and 690 nm as a reference.

C. albicans strains = assay: Fungistatic activity assay, broth microdilution, values given over several strains; format: cell-based, Candida albicans; conditions: Candida albicans
Experimental: as §3, §4

HepG2 cells = assay: Resazurin-based viability assay; format: cell-based, human
Experimental: as §1, §2

C. albicans ATTC18804 = tested on: C. albicans ATTC18804; design: method as in Kubo et al., 1993; conditions: C. albicans ATTC18804 ref Kubo et al., 1993; cited from earlier work

Structure (SMILES) | Fluorescence anisotropy of the DPH probe (RBCs membrane; 20 µM) | Fluorescence anisotropy of the DPH probe (RBCs membrane; 60 µM) | Fluorescence anisotropy of the DPH probe (RBCs membrane; 100 µM) | Effect on Caco-2 proliferation / viability (in words) (Caco-2 cells) | hemolysis at 1 h, 10 µM [1] [%] | hemolysis at 1 h, 20 µM [1] [%] | hemolysis at 1 h, 40 µM [1] [%] | hemolysis at 1 h, 60 µM [1] [%] | hemolysis at 1 h, 80 µM [1] [%] | hemolysis at 1 h, 100 µM [1] [%] | Effect on MG63 proliferation / viability (in words) (MG63 cells) | Change in DPH anisotropy / RBCs membrane fluidity (in words) (RBCs membrane) | other results
CC(O)C(O)c1ccc2c(c1)OCO2 (stereo not shown) [1b, 1-(1,3-benzodioxol-5-yl)propane-1,2-diol] | 0.247 ± 0.018 | 0.274 ± 0.036 | 0.252 ± 0.012 | strongest inhibition | 2.28 ± 0.251 | 1.86 ± 0.293 | 1.98 ± 0.272 | 1.88 ± 0.251 | 2.39 ± 0.349 | 2.58 ± 0.321 | – | – | MIC50 (C. albicans 595/20; 595/20, 24 h): 107 µg/mL (≈ 545 µM); MIC50 (C. albicans 636/20): 177 µg/mL (≈ 902 µM)
CC(O)C(=O)c1ccc2c(c1)OCO2 (stereo not shown) [1c, 1-(1,3-benzodioxol-5-yl)-2-hydroxypropan-1-one] | 0.260 ± 0.011 | 0.267 ± 0.019 | 0.277 ± 0.078 | – | 1.46 ± 0.08 | 1.17 ± 0.02 | 1.81 ± 0.302 | 1.85 ± 0.027 | 1.41 ± 0.295 | 1.51 ± 0.576 | suppressed the proliferation | – | MIC50 (C. albicans strains; read-out: MIC50 (over three strains)): 178 to 200 µg/mL (≈ 917 to 1030 µM); MIC50 (C. albicans 636/20): > 250 µg/mL
COc1ccc(C(O)C(C)O)cc1 (stereo not shown) [3b, 1-(4-methoxyphenyl)propane-1,2-diol] | 0.272 ± 0.019 | 0.249 ± 0.083 | 0.262 ± 0.056 | strongest inhibition | 2.45 ± 0.509 | 2.98 ± 0.153 | 1.9 ± 0.209 | 2.29 ± 0.635 | 2.4 ± 0.209 | 2.6 ± 0.265 | suppressed the proliferation | an increase in anisotropy at lower concentrations and a decrease at higher concentrations | Effect on HepG2 proliferation / viability (in words) (HepG2 cells; 24 h, 1, 50 and 200 μg/mL): significantly increased the proliferative potential; MIC50 (C. albicans strains; C. albicans 595/20, 636/20 and 38, read-out: MIC50 (over three strains)): 47 to 76 µg/mL (≈ 258 to 417 µM); MIC50 (C. albicans 595/20; C. albicans 595/20, 24 h, 35°C, tested 10–250 μg/mL, read-out: MIC50): 47 µg/mL (≈ 258 µM)
CC=Cc1ccc(OC)c(OC)c1 [4a, 1,2-dimethoxy-4-prop-1-en-1-yl benzene] | 0.264 ± 0.004 | 0.261 ± 0.008 | 0.269 ± 0.007 | – | 1.76 ± 0.152 | 1.48 ± 0.173 | 1.67 ± 0.195 | 1.58 ± 0.18 | 2.48 ± 0.152 | 1.79 ± 0.159 | promoted MGC63 proliferation | – | MIC (C. albicans ATTC18804): 400 µg/mL (≈ 2240 µM); MIC50 (C. albicans strains; read-out: MIC50 (over all tested strains)): 39 to 67 µg/mL (≈ 219 to 376 µM)
COc1ccc(C(O)C(C)O)cc1OC (stereo not shown) [4b, 1-(3,4-dimethoxyphenyl)propane-1,2-diol] | 0.289 ± 0.004 | 0.228 ± 0.095 | 0.290 ± 0.003 | strongest inhibition | 1.64 ± 0.127 | 1.52 ± 0.375 | 1.42 ± 0.074 | 1.2 ± 0.395 | 1.19 ± 0.04 | 2.06 ± 0.536 | – | increase in anisotropy | MIC50 (C. albicans strains; C. albicans 636/20, 595/20, 38 and ATTC90028, read-out: MIC50 (over all tested strains)): 37 to 63 µg/mL (≈ 174 to 297 µM)
COc1ccc(C(=O)C(C)O)cc1OC (stereo not shown) [4c, 1-(3,4-dimethoxyphenyl)-2-hydroxypropan-1-one] | 0.257 ± 0.014 | 0.243 ± 0.019 | 0.263 ± 0.008 | – | 1.483 ± 0.007 | 1.93 ± 0.228 | 2.1 ± 0.395 | 1.77 ± 0.342 | 2.02 ± 0.047 | 2.445 ± 0.013 | promoted MGC63 proliferation | a decrease in anisotropy | –
COc1cc(C(O)C(C)O)ccc1O (stereo not shown) [5b, 1-(4-hydroxy-3-methoxyphenyl)propane-1,2-diol] | 0.268 ± 0.025 | 0.277 ± 0.003 | 0.272 ± 0.058 | – | 1.27 ± 0.094 | 1.55 ± 0.101 | 1.52 ± 0.181 | 1.62 ± 0.174 | 2.58 ± 0.288 | 1.98 ± 0.308 | suppressed the proliferation | – | Effect on MG63 proliferative activity (in words) (MG63 cells; 24 h, 1 μg/mL): induced the proliferative activity; Effect on MG63 proliferative activity / viability (in words) (MG63 cells; 24 h, 50 μg/mL): significantly increased cell viability; Effect on Caco-2 proliferative activity (in words) (Caco-2 cells; 24 h, 1 μg/mL): induced the proliferative activity; Effect on HepG2 proliferative activity (in words) (HepG2 cells; 24 h, 1 μg/mL): induced the proliferative activity
